The source of these data is US20220213126A1, “SMALL MOLECULE AUTOPHAGY INDUCERS FOR THE TREATMENT OF CANCER AND NEURODEGENERATIVE DISEASES” (John Wayne Cancer Institute, priority 2019, published 2022).

This test addresses T1, CYP3A4 (Homo sapiens, UniProt P08684).
T1 construct: from tissue; host or cells: pooled human liver microsomes
The experiment in a line: CYP inhibition in pooled human liver microsomes. It counts as in vitro ADME.

Read-outs that look alike come from different tables or passages of the source.

T1 sequence (P08684 2-503): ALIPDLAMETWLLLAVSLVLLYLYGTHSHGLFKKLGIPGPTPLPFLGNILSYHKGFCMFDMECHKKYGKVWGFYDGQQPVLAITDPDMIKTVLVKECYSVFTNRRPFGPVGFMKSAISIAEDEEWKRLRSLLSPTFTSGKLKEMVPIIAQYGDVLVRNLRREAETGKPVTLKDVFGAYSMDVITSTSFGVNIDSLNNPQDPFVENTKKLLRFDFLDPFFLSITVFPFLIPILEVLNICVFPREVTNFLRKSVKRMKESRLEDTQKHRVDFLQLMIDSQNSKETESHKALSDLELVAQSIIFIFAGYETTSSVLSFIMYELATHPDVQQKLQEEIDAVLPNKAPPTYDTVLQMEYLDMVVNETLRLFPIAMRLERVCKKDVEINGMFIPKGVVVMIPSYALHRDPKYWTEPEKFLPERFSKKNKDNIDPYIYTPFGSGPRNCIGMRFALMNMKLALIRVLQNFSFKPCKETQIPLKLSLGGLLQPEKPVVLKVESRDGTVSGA

What is called IC50 is the concentration that gives 50% inhibition. Turning to `COc1ccc(/C=C/c2cc(OC)cc(B(O)O)c2)cc1` [VMY-BC-1], the IC50 is 70 to 100 µM (read-out: IC50 CYP 3A), over 100 µM (read-out: IC50 inhibition of CYP3A4MD2) and over 100 µM (read-out: IC50 inhibition of CYP3A4TST).
